Results on 2 molecules are retold here after patent US20220193111A1, “Method of Treatment” (The University Court of the University of Edinburgh, priority 2018, published 2022).

One data set concerns skin wounds. Briefly: Mouse model of skin wound healing (full-thickness excisional wounds). The data set is classed as in vivo. The note with it: for vessel density (CD31 positive vessels) / wound perfusion (laser Doppler): topical 1 μg/wound; for wound closure / expression of targets TGFB2 and SMAD2 in wound: topical 1 μg/wound every second day; for wound closure: 7 days; for wound perfusion (laser Doppler): 5 days post wounds. The procedure: All experiments involving mice were performed in accordance with the guidance and the operation of Animals (Scientific Procedures) Act 1986 and prior approval of the UK Home Office and the University of Edinburgh ethic committee. Skin wound healing protocol has been performed as described before^54-56. CD-1 female mice (7-9-week-old) (n=8 per group) were randomly assigned a treatment group and anaesthetized with isofluorane. Two full-thickness excisional wounds were made to the shaved dorsal skin. Full-thickness excisional wounds were made by picking up a fold of skin and using a sterile, disposable 5-mm biopsy punch (Kai Industries), resulting in generation of one wound on each side of the midline. Control oligonucleotides (scramble sequence), miR-148b mimic, Cy3-labeled miR-148b mimic or anti-miR-148b or SMAD2 siRNA (1 μg/wound) were delivered topically by pipette into the wound cavity (10 μl in a vehicle of 30% Pluronic F-127 gel [is liquid at 4° C. but solidifies at body temperature]; Sigma Aldrich). Mimics were initially delivered after 3 days, whereas anti-miR and siRNA were delivered immediately after wounding. The treatment was performed every second day for 7 days. Wounds were photographed using an Olympus camera on days 0, 2, 4, 6, and 7 after wounding. Wound areas were calculated as previously described^54, 55. To this aim, two perpendicular diameters of the wound were measured by using a Vernier caliper and wound area was calculated using a standard formula for the area of an ellipse (semi-major diameter X semi-minor diameter X Pi). The superficial blood flow of the wounds was sequentially analysed by colour laser Doppler (Colour laser Doppler, Moor, UK), and the ratio of blood flow between the mimic or anti-miR or siRNA treated and the control treated wounds was calculated. Wound size and Doppler analysis was performed in blinded fashion.
Wounds were harvested, prepared, and analysed essentially as previously described^54-56. At days 5 or 7 post-wounding, wounds were harvested and fixed in 10% buffered formalin (16 h at 4° C., Sigma) for embedding in paraffin. Sectioning was done through the wound beyond the midpoint and wound centres as identified by staining with Haematoxylin and Eosin (Sigma). Sections were deparaffinised, rehydrated and stained with rat anti-mouse polyclonal CD31 (Abcam, ab28364, 1:50), α-SMA (Sigma, A2547, 1:100) rabbit anti-mouse FSP-1 (Abcam, ab41532, 1:50), and SLUG (Abcam, […], 1:200); all antibodies overnight at 4° C.
Zeiss LSM 780 Confocal Microscope (Zeiss). Vascular density in wounds was counted after staining for CD31 and α-SMA. Ten fields per section/animal (n=8 animal; 400× magnification) were randomly examined and averaged to analyse the number of CD31-positive blood vessels in the wound edges. Images collection was performed manually. Image analysis was performed using Image J software as previously reported in^54. Vascular density is expressed per square millimetre. EndMT of ECs was assessed by FSP-1 and SLUG staining combined with CD31 staining. CD31-FSP-1 and CD31-SLUG double positive vessels are expressed as percentage of positive vessels. For analysis of fibrosis: the slides of the staining were examined and photomicrographed in a blinded fashion using a light microscope (Axioscope 2; Zeiss). Six images per slide were captured at 400× magnification for both histological staining. The colour deconvolution ImageJ software was used to evaluate the percentage of red staining which indicate the presence of collagen fibres in the tissue. The morphometric analysis corresponding to the red colours was measured as the percentage of total pixels in each image, using the Threshold (Image J software).

Data set [1] relates to HUVECs. Briefly: Matrigel assay (tube formation). The data set is classed as cell-based, human. The note with it: transfected 48 hrs (mimic 25 nM, anti-miR 75 mM). The procedure:
(§1) Lipofectamine RNAiMAX (Thermo Fisher Scientific) was used to transfect HUVECs with miR-148b mimic, anti-miR-148b and mimic or anti-miR control (25 nM and […], respectively final concentration) or with siRNA targeting SMAD2 (20 nM final concentration), according to the manufacturer's instructions. jetPEI-HUVECs (Polyplus) was used to transfect HUVECs with DNA plasmids. The following functional assays were performed: BrdU incorporation assay using Cell Proliferation colorimetric assay (Roche); Matrigel assay with HUVECs was performed as previously described using BD Matrigel Basement Membrane Matrix (BD Biosciences)^53.

The subject of data set [2] is HUVECs. Briefly: ECIS migration assay. The data set is classed as cell-based, human. The note with it: transfected 48 hrs (mimic 25 nM, anti-miR 75 mM). Here is the method:
Confluent HUVECs were transfected with controls or miR-148b mimic or anti-miR-148b and, plated on the ECIS chip array (8W1E or 8W10E). The migration speed was calculated in μm/h, capacitance of the plasma membrane is Cm (μF/cm^2) as reported in Giaever, I, and Keese, C R (1991)^29.

Data set [3] has as its system HUVECs. Briefly: BrdU incorporation assay (EC proliferation). The class given is cell-based, human. As to conditions: transfected 48 hrs (mimic 25 nM, anti-miR 75 mM). The procedure: as §1

“anti-miR-148b: miR-148b inhibitor oligonucleotide; suitable inhibitor: hsa-miR-148b-3p miRCURY LNA inhibitor, CAAAGTTCTGTGATGCACTG (SEQ ID NO: 6) (commercial miRCURY LNA inhibitor, LNA positions not given here)”: in the data set with skin wounds (day 7 after wounding), the “collagen deposition (PicroSirius Red)” value is “did not detect any increase”; the “expression of targets TGFB2 and SMAD2 in wound” value is reported as “increased”. Further, the “CD31-FSP-1 or CD31-SLUG double-positive vessels in wound edge” value in the data set on skin wounds (delivered immediately after wounding and every two days, day 7) is given as “comprised of CD31-FSP-1 or CD31-SLUG double-positive vessels”. Further, in the data set on skin wounds (following delivery to the wounds), the “skin vessels that demonstrated mesenchymal transition (EndMT)” value is given as “around 20%”. Further, in the data set with skin wounds, the “vessel density (CD31 positive vessels)” value is “without effecting”, the wound closure result is on record as “markedly attenuated” and the “wound perfusion (laser Doppler)” value is given as “without effecting”. In addition, the “total number of FSP-1 positive cells in wounds” value in the data set with skin wounds (vs control oligonucleotide-treated wounds, day 7) is “increase”. Besides, the “tube formation / tubulogenesis in Matrigel assay (total tubules length)” value in the data set on HUVECs [1] was “did not cause a change”. In addition, the “EC migration (migration speed)” value in the data set with HUVECs [2] was “did not cause a change”. In the data set with HUVECs [3], the “proliferation of HUVECs (BrdU incorporation)” value is “decreased”.

B1: miR-148b mimic: miR-148b mimic oligonucleotide; in a particular embodiment has SEQ ID NO: 1, the human precursor miR-148b sequence (nucleic acid)
chain: CAAGCACGAUUAGCAUUUGAGGUGAAGUUCUGUUAUACACUCAGGCUGUGGCUCUCUGAAAGUCAGUGCAUCACAGAACUUUGUCUCGAAAGCUUUCUA
modifications: listed as RNA, chemistry not given here
As for B1, in the data set with skin wounds, the “vessel density (CD31 positive vessels)” value is reported as “significant increase”, the wound closure entry is recorded as “accelerated” and the “wound perfusion (laser Doppler)” value is on record as “significant increase”. Also, in the data set on skin wounds (day 7 after wounding), the “expression of targets TGFB2 and SMAD2 in wound” value is listed as “decreasing”. Moreover, the “miR-148b expression in wound” value in the data set with skin wounds (topical, starting 3 days after wounding, day 7) is reported as “increased”. Further, the “tube formation / tubulogenesis in Matrigel assay (total tubules length)” value in the data set on HUVECs [1] is “significantly elevated”. The “EC migration (migration speed)” value with HUVECs [2] was “significantly elevated”. Also, in the data set with HUVECs [3], the “proliferation of HUVECs (BrdU incorporation)” value was “significantly increased”.
